Results as given in patent US20240358748A1, “AMORPHOUS DISPERSION OF FERRIC MALTOL AND THE PREPARATION PROCESS THEREOF” (Indena S.P.A., priority 2021, published 2024).

Assay: Accelerated stability study (solid form checked by X-ray powder diffraction)
Type: physicochemical
Conditions: after 12 days at room temperature and relative humidity of 75%±5%
Experimental: The X-ray diffraction pattern was recorded on a Bruker D2-Phaser diffractometer. The X-ray generator was set to 30 kV and 10 mA, using Cuk as radiation source. The sample was prepared in a sample holder and irradiated for an irradiation length of 10 mm. The data were recorded between 2 and 50 2θ degrees every 0.02 2θ degrees, with a recording time of 3 seconds per 2θ degree.
The amorphous solid dispersion prepared according to Example 1, and ferric maltol in amorphous form, prepared according to the procedure reported in Example 1 but without the addition of Soluplus®, underwent an accelerated stability study.

Q: Which “solid form after storage (X-ray diffractogram)” value does the source give for `Cc1occc(=O)c1[O-].Cc1occc(=O)c1[O-].Cc1occc(=O)c1[O-].[Fe+3]` [ferric maltol in amorphous form, 3-hydroxy-2-methyl-4H-pyran-4-one: iron (III) (3:1)] here?
A: Its value is “attributable to ferric maltol Form I”.

Q: And the “solid form after storage (X-ray diffractogram)” value (listed as ferric maltol)?
A: The value was “tends to be converted, at least partly, to a crystalline structure”.
